Measured values from patent US10227345B2, “Compounds and methods for inhibiting fascin” (Cornell University, priority 2014, dated 2019).

These molecules were tested against T1, human fascin 1 (Homo sapiens, UniProt Q16658) (assay: Fascin inhibition (actin bundling) assay, image-based). Details: in the presence of 50 μm of the compound relative to bundle activity when the compound was not present; read-out: Inhibition (percentage reduction of bundle activity).
T1 construct: GST (N, cleaved yes); made in house; host or cells: Escherichia coli BL21/DE3 (pGEX4T-fascin 1 plasmid)
Type: biochemical
Method: Recombinant human fascin 1 was expressed as a GST fusion protein in BL21 Escherichia coli. One liter of 2YT medium with ampicillin was inoculated overnight with 3 mL of BL21/DE3 culture transformed with pGEX4T-fascin 1 plasmid and grown at 37° C. until attenuance at 600 nm (D600) reached about 0.8. The culture was then transferred to 18° C. and induced by the addition of 0.1 mM isopropyl β-d-thiogalactoside (IPTG) for 12 h. Bacteria were harvested by centrifugation at 5,000 r.p.m. for 10 min. The pellets were suspended in 30 mL of PBS supplemented with 0.2 mM PMSF, 1 mM DTT, 1% (v/v) Triton X-100 and 1 mM EDTA. After sonication, the suspension was centrifuged at 15,000 r.p.m. for 30 min to remove the cell debris. The supernatant was then incubated for 2 h with 4 mL of glutathione beads (Sigma) at 4° C. After extensive washing with PBS, the beads were resuspended in 10 mL of thrombin cleavage buffer (20 mM Tris-HCl pH 8.0, 150 mM NaCl, 2 mM CaCl2, 1 mM DTT). Fascin was released from the beads by incubation overnight with 40-100 U of thrombin at 4° C. After centrifugation, 0.2 mM PMSF was added to the supernatant to inactivate the remnant thrombin activity. The fascin protein was further concentrated with a Centricon® (Boca Raton, Fla.) filter to about 50 mg/mL.
Representative compounds described herein were tested for fascin inhibition activity. Purified fascin protein (15 μL of 0.5 μM) in buffer (100 mM KCl, 20 mM Tris/HCl, pH 7.5, 2 mM MgCl2) was added into each well of a clear 384-well flat-bottom plate (Corning) using Thermo Multidrop Combi (Fisher). Compound solutions (5 mM stock, 180 nL) were pin transferred from stock 384-well plates into the 384-well assay plates and incubated for 30 min. Then 15 μL of 0.5 μM polymerized actin (in 100 mM KCl, 20 mM Tris/HCl, pH 7.5, 2 mM MgCl2, 1 mM DTT, 1 mM ATP) (Cytoskeleton Inc.) was added, resulting in 30 μM final concentration for chemical compounds. […] Mixed solution (25 μL) was then transferred to one well in a black 384-well plate coated with poly-D-lysine, and stained actin bundles or F-actin would stick onto the poly-D-lysine plates. After the plates were thoroughly washed with 1×PBS for 3 times, the plate was imaged using an ImageXpress Micro High Content Screening System (Molecular devices). The images were processed and analyzed using MetaMorph software. The raw image data for each well was background-corrected by subtraction of the median intensities across all wells on the plate. The background-corrected data was used to compute the bundle length for each well. The negative control wells were employed for quality control: multiple DMSO-only control wells (16 wells/plate) were present on each assay plate.

Inhibition at 50 µM, < 10%:
N#Cc1ccc(Cn2nc(NC(=O)c3ccoc3)c3ccccc32)cc1 [Compound 85, N-(1-(4-cyanobenzyl)-1H-indazol-3-yl)furan-3-carboxamide]
Cc1nocc1C(=O)Nc1nn(Cc2ccc(C#N)cc2)c2ccccc12 [Compound 86, N-(1-(4-cyanobenzyl)-1H-indazol-3-yl)-3-methylisoxazole-4-carboxamide]
N#Cc1ccc(Cn2nc(NC(=O)c3ccno3)c3ccccc32)cc1 [Compound 87, N-(1-(4-cyanobenzyl)-1H-indazol-3-yl)isoxazole-5-carboxamide]
Cc1occc1C(=O)Nc1nn(Cc2ccc(C#N)cc2)c2ccccc12 [Compound 88, N-(1-(4-cyanobenzyl)-1H-indazol-3-yl)-2-methylfuran-3-carboxamide]
N#Cc1ccc(Cn2nc(NC(=O)c3cccnn3)c3ccccc32)cc1 [Compound 90, N-(1-(4-cyanobenzyl)-1H-indazol-3-yl)pyridazine-3-carboxamide]
Nc1nn(Cc2ccc(C(F)(F)F)nc2)c2ccccc12 [Compound 91, 1-((6-(trifluoromethyl)pyridine-3-yl)methyl)-1H-indazol-3-amine]
O=C(Nc1nn(Cc2ccc(C(F)(F)F)nc2)c2ccccc12)c1ccoc1 [Compound 92, N-(1-((6-(trifluoromethyl)pyridine-3-yl)methyl)-1H-indazol-3-yl)furan-3-carboxamide]
Cc1nocc1C(=O)Nc1nn(Cc2ccc(C(F)(F)F)nc2)c2ccccc12 [Compound 93, 3-methyl-N-(1-((6-(trifluoromethyl)pyridin-3-yl)methyl)-1H-indazol-3-yl)isoxazole-4-carboxamide]
Cc1occc1C(=O)Nc1nn(Cc2ccc(C(F)(F)F)nc2)c2ccccc12 [Compound 94, 2-methyl-N-(1-((6-(trifluoromethyl)pyridin-3-yl)methyl)-1H-indazol-3-yl)furan-3-carboxamide]
Cc1ncsc1C(=O)Nc1nn(Cc2ccc(C(F)(F)F)nc2)c2ccccc12 [Compound 95, 4-methyl-N-(1-((6-(trifluoromethyl)pyridin-3-yl)methyl)-1H-indazol-3-yl)thiazole-5-carboxamide]
O=C(Nc1nn(Cc2ccc(C(F)(F)F)nc2)c2ccccc12)c1cccnn1 [Compound 96, N-(1-((6-(trifluoromethyl)pyridin-3-yl)methyl)-1H-indazol-3-yl)pyridazine-3-carboxamide]
N#Cc1ccc2c(c1)c(N)nn2Cc1ccc(C(F)(F)F)nc1 [Compound 97, 3-amino-1-((6-(trifluoromethyl)pyridin-3-yl)methyl)-1H-indazole-5-carbonitrile]
N#Cc1ccc2c(c1)c(NC(=O)c1ccoc1)nn2Cc1ccc(C(F)(F)F)nc1 [Compound 98, N-(5-cyano-1-((6-(trifluoromethyl)pyridin-3-yl)methyl)-1H-indazol-3-yl)furan-3-carboxamide]
Cc1nocc1C(=O)Nc1nn(Cc2ccc(C(F)(F)F)nc2)c2ccc(C#N)cc12 [Compound 99, N-(5-cyano-1-((6-(trifluoromethyl)pyridin-3-yl)methyl)-1H-indazol-3-yl)-3-methylisoxazole-4-carboxamide]
Cc1occc1C(=O)Nc1nn(Cc2ccc(C(F)(F)F)nc2)c2ccc(C#N)cc12 [Compound 100, N-(5-cyano-1-((6-(trifluoromethyl)pyridin-3 - yl)methyl)-1H-indazol-3-yl)-2-methylfuran-3-carboxamide]
Cc1ncsc1C(=O)Nc1nn(Cc2ccc(C(F)(F)F)nc2)c2ccc(C#N)cc12 [Compound 101, N-(5-cyano-1-((6-(trifluoromethyl)pyridin-3-yl)methyl)-1H-indazol-3-yl)-4-methylthiazole-5-carboxamide]
Nc1nn(Cc2ccc(CO)cc2)c2ccccc12 [Compound 103, (4-((3-amino-1H-indazol-1-yl)methyl)phenyl)methanol]
O=C(Nc1nn(Cc2ccc(CO)cc2)c2ccccc12)c1ccoc1 [Compound 104, N-(1-(4-(hydroxymethyl)benzyl)-1H-indazol-3-yl)furan-3-carboxamide]
O=C(Nc1cn(Cc2ccc(C(F)(F)F)cc2)c2ccccc12)c1ccoc1 [Compound 105, N-(1-(4-(trifluoromethyl)benzyl)-1H-indol-3-yl)furan-3-carboxamide]
Nc1nn(Cc2ccc(C(F)(F)F)cc2)c2cc(C(F)(F)F)ccc12 [Compound 106, 6-(trifluoromethyl)-1-(4-(trifluoromethyl)benzyl)-1H-indazol-3-amine]
O=C(Nc1nn(Cc2ccc(C(F)(F)F)cc2)c2cc(C(F)(F)F)ccc12)c1ccoc1 [Compound 107, N-(6-(trifluoromethyl)-1-(4-(trifluoromethyl)benzyl)-1H-indazol-3-yl)furan-3-carboxamide]
Cc1nocc1C(=O)Nc1nn(Cc2ccc(C(F)(F)F)cc2)c2cc(C(F)(F)F)ccc12 [Compound 108]
Cc1occc1C(=O)Nc1nn(Cc2ccc(C(F)(F)F)cc2)c2cc(C(F)(F)F)ccc12 [Compound 109]
Cc1ncsc1C(=O)Nc1nn(Cc2ccc(C(F)(F)F)cc2)c2cc(C(F)(F)F)ccc12 [Compound 110, 4-methyl-N-(6-(trifluoromethyl)-1-(4-(trifluoromethyl)benzyl)-1H-indazol-3-yl)thiazole-5-carboxamide]
Nc1nn(Cc2ccc(C(F)(F)F)cc2)c2c(C(F)(F)F)cccc12 [Compound 111, 7-(trifluoromethyl)-1-(4-(trifluoromethyl)benzyl)-1H-indazol-3-amine]
O=C(Nc1nn(Cc2ccc(C(F)(F)F)cc2)c2c(C(F)(F)F)cccc12)c1ccoc1 [Compound 112, N-(7-(trifluoromethyl)-1-(4-(trifluoromethyl)benzyl)-1H-indazol-3-yl)furan-3-carboxamide]
Cc1nocc1C(=O)Nc1nn(Cc2ccc(C(F)(F)F)cc2)c2c(C(F)(F)F)cccc12 [Compound 113, 3-methyl-N-(7-(trifluoromethyl)-1-(4-(trifluoromethyl)benzyl)-1H-indazol-3-yl)isoxazole-4-carboxamide]
Cc1occc1C(=O)Nc1nn(Cc2ccc(C(F)(F)F)cc2)c2c(C(F)(F)F)cccc12 [Compound 114, 2-methyl-N-(7-(trifluoromethyl)-1-(4-(trifluoromethyl)benzyl)-1H-indazol-3-yl)furan-3-carboxamide]
Cc1ncsc1C(=O)Nc1nn(Cc2ccc(C(F)(F)F)cc2)c2c(C(F)(F)F)cccc12 [Compound 115, 4-methyl-N-(7-(trifluoromethyl)-1-(4-(trifluoromethyl)benzyl)-1H-indazol-3-yl)thiazole-5-carboxamide]
Nc1nn(Cc2ccc(C(F)(F)F)cc2)c2cccc(Cl)c12 [Compound 116, 4-chloro-1-(4-(trifluoromethyl)benzyl)-1H-indazol-3-amine]
O=C(Nc1nn(Cc2ccc(C(F)(F)F)cc2)c2cccc(Cl)c12)c1ccoc1 [Compound 117, N-(4-chloro-1-(4-(trifluoromethyl)benzyl)-1H-indazol-3-yl)furan-3-carboxamide]
Cc1nocc1C(=O)Nc1nn(Cc2ccc(C(F)(F)F)cc2)c2cccc(Cl)c12 [Compound 118, N-(4-chloro-1-(4-(trifluoromethyl)benzyl)-1H-indazol-3-yl)-3-methylisoxazole-4-carboxamide]
Cc1occc1C(=O)Nc1nn(Cc2ccc(C(F)(F)F)cc2)c2cccc(Cl)c12 [Compound 119, N-(4-chloro-1-(4-(trifluoromethyl)benzyl)-1H-indazol-3-yl)-2-methylfuran-3-carboxamide]
